# Laboratory results: article PMC7076710, “Synthesis, Identification, and Structure–Activity Relationship Analysis of GATA4 and NKX2-5 Protein–Protein Interaction Modulators” (Journal of Medicinal Chemistry, 2019)
# Target: T1, GATA4–NKX2-5 transcriptional synergy (Mus musculus, UniProt P42582+Q08369)
# T1 construct: expressed in transfected cells; host or cells: COS-1
# Assay: GATA4–NKX2-5 transcriptional synergy luciferase reporter assay (3xNKE reporter, COS-1 cells)
# Type: cell-based
# Protocol: To screen compounds for the GATA4–NKX2-5 interaction, we have developed a luciferase reporter assay based on their property to activate gene transcription synergistically through the NKX2-5 binding site on DNA.[28] In this assay, we transfected mammalian COS-1 cells with protein expression vectors for GATA4 and NKX2-5 proteins together with artificial luciferase reporter vector containing three high affinity binding sites for NKX2-5 (NKE). […] All 257 compounds were tested in two concentrations, 3 and 10 μM. Compounds either inhibited, enhanced, or had no effect on the GATA4–NKX2-5 transcriptional synergy. To investigate the selectivity of the active compounds, we tested their effects on NKX2-5 transcriptional activity by using the same luciferase reporter vector as in transcriptional synergy assay with three NKE sites (Figure 3B). Furthermore, we used GATA luciferase reporter assay to examine if compounds have an effect on GATA4 transcriptional activity. In this assay, we cotransfected the cells with a GATA4 protein expression vector and a reporter vector with tandem GATA4 binding sites (Figure 3C). Previously we have reported that compound 1 inhibited the GATA4–NKX2-5 transcriptional synergy at micromolar concentrations (IC50 = 3 μM).[29]
# The plasmids expressing mouse GATA4 protein, pMT2-GATA4, and empty pMT2 were gifts from D. B. Wilson (Department of Pediatrics, St. Louis Children’s Hospital, St. Louis, MO).[44] The plasmids expressing mouse NKX2-5 protein, pMT2-NKX2-5, have been described earlier.[28] The luciferase reporter plasmid used in GATA4–NKX2-5 transcriptional synergy assay and NKX transcriptional assay, pGL3-3xHA, contains three high affinity binding sites for NKX2-5.[28] The luciferase reporter plasmid used in GATA transcriptional assay, NP-112, contains tandem GATA-sites and minimal promoter of rat brain natriuretic peptide (BNP) gene.[45] The pGL3-BNP luciferase reporter containing −534/+4 bp rat BNP proximal promoter described previously was used in hypertrophy assay.[46]
# The primary screening assay of compounds’ effect on GATA4–NKX2-5 transcriptional synergy and COS-1 cell culturing has been described earlier.[33] […] (Kinnunen et al., unpublished observation). Briefly, COS-1 cells were seeded at 14 000 cells/well in Isoplate-96 microplates (PerkinElmer, Turku, Finland) and grown overnight. The cells were transfected with the luciferase reporter plasmid pGL3-3xHA 100 ng/well and equal amounts of expression plasmids pMT2-GATA4 and pMT2-NKX2-5 total 50 ng/well. To verify the synergistic effect, the cells were transfected with pMT2-GATA4 or pMT2-NKX2-5 25 ng/well, and the total DNA concentration was adjusted to 50 ng/well with empty pMT2 plasmid. In NKX2-5 and GATA4 luciferase reporter assays, the cells were transfected with reporter plasmid pGL3-3xHA or NP-112 (100 ng/well) and expression plasmid pMT2-NKX2-5 or pMT2-GATA4 (25 ng/well). The ratio of DNA/transfection reagent (Fugene 6, Promega) was 1:3 in all assays. The transfections were performed in serum and antibiotics free media for 6 h. The cells were treated with compounds or vehicle (0.1% DMSO) for 24 h, and the luminescence was measured using neolite Reporter Gene Assay System (PerkinElmer, Turku, Finland) and Victor2 plate reader (PerkinElmer, Turku, Finland).
# Raw luciferase data were analyzed in Excel, and clear outliers were removed from triplicates by using the Grubb’s test. Data analysis was performed using R.[49] The luciferase data were first normalized on the basis of the combined mean value of controls. For data visualization and creation of figures, the following R packages were used: ggplot2, cowplot, RColorBrewer, and pheatmap. The heatmaps of the toxicity data were produced with GraphPad Prism 7.00 (GraphPad Software, La Jolla, CA). Statistical significance of luciferase reporter assay data was evaluated by randomized block analysis of variance followed by Dunnett’s post hoc test. […]
# [1] = COS-1, GATA4-NKX2-5 transcriptional synergy luciferase reporter assay, compound at 3 µM
# [2] = COS-1, GATA4-NKX2-5 transcriptional synergy luciferase reporter assay, compound at 10 µM
# [3] = COS-1, compound 3 µM, luciferase reporter activity relative to control
# [4] = COS-1, compound 10 µM, luciferase reporter activity relative to control
# [5] = COS-1, compound at 3 µM, luciferase reporter activity, % of control
# [6] = COS-1, compound at 10 µM, luciferase reporter activity, % of control
# [7] = COS-1, compound 3 µM, luciferase reporter activity, spread in separate STDEV column
# [8] = COS-1, compound 10 µM, luciferase reporter activity, spread in separate STDEV column
# [9] = COS-1, 3 µM, luciferase reporter activity, % of control
# [10] = COS-1, 10 µM, luciferase reporter activity, % of control
# [11] = 3 µM compound, GATA4–NKX2-5 transcriptional synergy reporter, COS-1 cells
# [12] = 10 µM compound, GATA4–NKX2-5 transcriptional synergy reporter, COS-1 cells
# T1 sequence (Q08369 whole entry): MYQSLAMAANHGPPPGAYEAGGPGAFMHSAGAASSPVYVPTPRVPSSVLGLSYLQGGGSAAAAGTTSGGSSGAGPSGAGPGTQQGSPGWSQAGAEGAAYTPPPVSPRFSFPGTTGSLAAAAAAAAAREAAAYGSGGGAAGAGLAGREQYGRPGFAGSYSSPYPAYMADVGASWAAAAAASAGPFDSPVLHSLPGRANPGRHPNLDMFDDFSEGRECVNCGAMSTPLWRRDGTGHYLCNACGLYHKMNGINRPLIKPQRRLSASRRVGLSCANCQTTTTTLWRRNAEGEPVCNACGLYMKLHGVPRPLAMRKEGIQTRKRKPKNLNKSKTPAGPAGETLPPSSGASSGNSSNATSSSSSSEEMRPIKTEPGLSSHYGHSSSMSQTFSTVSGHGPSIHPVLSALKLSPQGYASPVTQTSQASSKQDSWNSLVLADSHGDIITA
# T1 sequence (P42582 whole entry): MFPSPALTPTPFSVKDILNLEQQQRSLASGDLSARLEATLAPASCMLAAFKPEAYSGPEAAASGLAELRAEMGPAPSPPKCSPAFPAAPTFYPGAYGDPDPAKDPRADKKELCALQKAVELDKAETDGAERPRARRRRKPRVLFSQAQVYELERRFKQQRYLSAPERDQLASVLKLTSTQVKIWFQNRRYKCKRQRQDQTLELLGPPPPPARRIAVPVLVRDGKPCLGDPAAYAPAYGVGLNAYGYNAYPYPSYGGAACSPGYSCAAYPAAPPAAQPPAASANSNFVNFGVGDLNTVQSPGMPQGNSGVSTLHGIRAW
smiles,measurement,setting,value
CN(C)c1c(F)cc(NC(=O)c2cc(-c3ccco3)on2)cc1F [SI129],activity at 3 µM,[1],94.3%
same,activity at 10 µM,[2],115%
CCCCOC(=O)c1ccc(N=Nc2c(-c3ccc(OC)cc3)n[nH]c2N)cc1 [SI96],activity at 3 µM,[3],97.6%
same,activity at 10 µM,[4],78.6%
Cc1onc(-c2ccccc2)c1NC(=O)c1ccc(N2CCN(C)CC2)cc1 [Compound 67],activity at 3 µM,[5],90.6%
same,activity at 10 µM,[6],124%
CC(=O)c1ccc(OCc2cc(-c3ccc(CC(C)C)cc3)on2)cc1 [SI107],activity at 3 µM,[3],113%
same,activity at 10 µM,[4],104%
CCN(CC)c1ccc(N(CCC2OCCO2)C(=O)c2c(-c3cccc([N+](=O)[O-])c3)noc2C)cc1 [SI29],activity at 3 µM,[3],82.9%
same,activity at 10 µM,[4],82.5%
Cc1cc(-c2noc(C)c2C(=O)Nc2ccc(C(F)(F)F)cc2)no1 [SI135],activity at 3 µM,[1],98.8%
same,activity at 10 µM,[2],101%
Cc1cc(-c2onc(C)c2C(=O)N(C)c2ccc3oc(-c4ccccc4)cc(=O)c3c2)no1 [SI77],activity at 3 µM,[7],122%
same,activity at 10 µM,[8],121%
CCN(CC)C(=O)c1cc(-c2cccs2)on1 [SI114],activity at 3 µM,[7],124%
same,activity at 10 µM,[8],115%
CCN(CC)c1ccc(/N=N/c2c(C)noc2C)cc1 [SI20],activity at 3 µM,[9],82.6%
same,activity at 10 µM,[10],101%
Cc1cc(NC(=O)c2c(-c3cccc([N+](=O)[O-])c3)noc2C)ccc1C(C)C [SI52],activity at 3 µM,[5],93.1%
same,activity at 10 µM,[6],91%
CCN(CC)c1ccc(NC(=O)c2nn(-c3ccccc3)nc2C)cc1 [Compound 47b],activity at 3 µM,[9],97.7%
same,activity at 10 µM,[10],101%
CCN(CC)c1ccc(N(C)C(=S)c2c(-c3ccccc3)noc2C)cc1 [Compound 26],activity at 3 µM,[3],92.9%
CC(=O)COC(=O)c1ccc(NC(=O)c2c(-c3ccccc3)noc2C)cc1 [SI3],activity at 3 µM,[7],85.8%
same,activity at 10 µM,[8],98.5%
Cc1onc(-c2ccccc2)c1NC(=O)Nc1ccc(C(=O)c2ccccc2)cc1 [SI26],activity at 3 µM,[9],94.9%
same,activity at 10 µM,[10],72.7%
CSc1nsc(SC)c1C(=O)Nc1ccc2oc(-c3ccccc3)cc(=O)c2c1 [SI103],activity at 3 µM,[11],96.2%
same,activity at 10 µM,[12],110%
CCN(CC)c1ccc(NC(=O)c2c(-c3ccc(-c4ccc(F)cc4)cc3)noc2C)cc1 [Compound 39j],activity at 3 µM,[11],115%
same,activity at 10 µM,[12],114%
Cc1onc(-c2ccccc2)c1C(=O)N1CCc2cc([N+](=O)[O-])ccc21 [SI16],activity at 3 µM,[9],99.5%
same,activity at 10 µM,[10],91.3%
"CCN(CC)c1ccc(N(Cc2c(-c3ccccc3)noc2C)C(C)=O)cc1 [Compound 16, N-[4-(Diethylamino)phenyl]-N-[(5-methyl-3-phenylisoxazol-4-yl)methyl]acetamide]",activity at 3 µM,[11],93.1%
CCN(CC)c1ccc(NC(=O)c2c(-c3cccc(Br)c3)noc2C)c(C)c1 [SI131],activity at 3 µM,[1],85.4%
same,activity at 10 µM,[2],88.3%
COc1ccc(-c2cc(N)nn2C(=O)c2ccc(C(C)(C)C)cc2)cc1 [SI112],activity at 3 µM,[5],104%
same,activity at 10 µM,[6],71.9%
Cc1onc(-c2ccccc2)c1/N=C/c1ccc(C(C)N(C)C)cc1 (centres unmarked) [SI45],activity at 3 µM,[9],88.4%
same,activity at 10 µM,[10],98.2%
Cc1cc(NC(=O)c2cnn(C)c2-c2ccccc2)ccc1C(C)C [SI87],activity at 3 µM,[11],88.1%
same,activity at 10 µM,[12],68.4%
Cc1onc(-c2ccccc2)c1C(=O)Nc1ccc2c(c1)C(=O)CC(C)(C)O2 [SI39],activity at 3 µM,[11],123%
same,activity at 10 µM,[12],106%
Cc1onc(-c2ccccc2)c1C(=O)Nc1ccc(C(=O)OCCN(C)C)cc1 [Compound 10d],activity at 3 µM,[7],99.6%
same,activity at 10 µM,[8],115%
N#Cc1ccc(NC(=O)c2cc(-c3ccco3)on2)cc1 [SI113],activity at 3 µM,[7],101%
same,activity at 10 µM,[8],99.2%
"C#Cc1ccc(NC(=O)c2c(-c3ccccc3)noc2C)cc1 [Compound 15, N-(4-Ethynylphenyl)-5-methyl-3-phenylisoxazole-4-carboxamide]",activity at 3 µM,[11],93.2%
CCCCCc1ccc(C(=O)Nc2c(-c3ccccc3)noc2C)cc1 [SI34],activity at 3 µM,[9],97.8%
same,activity at 10 µM,[10],77.6%
CCN(CC)c1ccc(NC(=O)c2c(C(F)(F)F)nn(C)c2Oc2ccccc2)cc1 [Compound 47q],activity at 3 µM,[11],94.5%
COC(=O)c1c(-c2ccccc2)nnn1CCc1ccccc1 [SI111],activity at 3 µM,[3],103%
same,activity at 10 µM,[4],106%
"CCC(O)c1ccc(OCc2c(-c3ccccc3)noc2C)cc1 (racemic) [Compound 34d, (rac)-1-[4-[(5-Methyl-3-phenylisoxazol-4-yl)methoxy]phenyl]propan-1-ol]",activity at 3 µM,[5],96.5%
CCN(CC)c1ccc(NC(=O)c2c[nH]nc2C2CCCCC2)cc1 [SI86],activity at 3 µM,[7],94.8%
same,activity at 10 µM,[8],70.7%
"CCN(CC)c1ccc(/C=N/c2c(-c3ccccc3)noc2C)cc1 [Compound 31, (E)-N-[4-(Diethylamino)benzylidene]-5-methyl-3-phenylisoxazol-4-amine]",activity at 3 µM,[3],94.1%
Cc1onc(-c2ccc(Br)s2)c1C(=O)Nc1ccc(C(C)C)cc1 [SI116],activity at 3 µM,[7],99.4%
same,activity at 10 µM,[8],97.2%
Cc1onc(-c2ccccc2Cl)c1C(=O)Nc1ccc2oc(-c3ccccc3)cc(=O)c2c1 [SI51],activity at 3 µM,[11],96.2%
same,activity at 10 µM,[12],75.2%
CCN(CC)c1ccc(NCc2ccncc2)cc1 [SI41],activity at 3 µM,[3],110%
same,activity at 10 µM,[4],100%
"CCN(CC)c1ccc(NS(=O)(=O)c2c(-c3ccccc3)noc2C)cc1 [Compound 21, N-[4-(Diethylamino)phenyl]-5-methyl-3-phenylisoxazole-4-sulfonamide]",activity at 3 µM,[3],104%
O=C(Nc1ccc2oc(-c3ccccc3)cc(=O)c2c1)c1ncoc1-c1ccccc1 [SI102],activity at 3 µM,[11],103%
same,activity at 10 µM,[12],91.3%
CCN(CC)c1ccc(C(=O)Nc2c(C(N)=O)oc3ccccc23)cc1 [SI106],activity at 3 µM,[5],94.1%
same,activity at 10 µM,[6],95.8%
CCN(c1ccc(NC(=S)c2c(-c3ccccc3)noc2C)cc1)C(C)C [SI38],activity at 3 µM,[5],72.7%
same,activity at 10 µM,[6],112%
Cc1onc(-c2ccccc2)c1C(=S)Nc1ccc(OCc2ccccc2)cc1 [SI37],activity at 3 µM,[5],108%
same,activity at 10 µM,[6],87.4%
CCN(CC)c1ccc(NS(=O)(=O)c2c(C)noc2C)cc1 [SI19],activity at 3 µM,[9],91.6%
same,activity at 10 µM,[10],79.1%
CCN(CC)c1ccc(NCc2c(-c3c(Cl)cccc3Cl)noc2C)cc1 [SI18],activity at 3 µM,[11],102%
same,activity at 10 µM,[12],92.8%
O=C(Nc1cccc(N2CCCC2=O)c1)c1cc(-c2ccccc2)[nH]n1 [SI130],activity at 3 µM,[1],102%
same,activity at 10 µM,[2],106%
Cc1onc(-c2ccccc2)c1C(=O)Nc1ccc2c(c1)nc(C)n2C(C)C [SI15],activity at 3 µM,[5],92.6%
same,activity at 10 µM,[6],96%
CCN(CC)c1ccc(NC(=O)c2c(C)noc2-c2noc(C)c2C)cc1 [SI73],activity at 3 µM,[7],86%
same,activity at 10 µM,[8],97.9%
Cc1onc(-c2ccccc2)c1NC(=O)c1ccc(CN(C)C)cc1 [SI33],activity at 3 µM,[5],95.3%
same,activity at 10 µM,[6],112%
CCN(CC)c1ccc(NC(=O)c2c(-c3ccccc3)nnc3ccccc23)cc1 [Compound 47j],activity at 3 µM,[3],113%
